Results from US12011502B2, “Compositions and methods of administering baclofen” (AMNEAL PHARMACEUTICALS LLC, priority 2021, dated 2024).

Key:
[1] = Solubility of baclofen in solutions comprising sulfate or phosphate; type: physicochemical
Method: A concentration of 8.8 mg/mL sodium chloride is considered isotonic and therefore desirable as being physiologically acceptable.

[2] = reported in the literature; cited from earlier work
[3] = limited evaluation, literature; cited from earlier work

Compound | solubility of baclofen ([1]; in solutions comprising sulfate or phosphate) | concentration of baclofen that can be dissolved ([1]; solutions containing phosphate, sulfate, potassium, sodium, or magnesium, such as greater than 3, 4, 5 or 6 mg/mL) | dominant metabolite of baclofen, reported share [2] | biological activity of the metabolite [3]
NCC(CC(=O)O)c1ccc(Cl)cc1 (stereo not shown) [baclofen, 4-amino-3-(4-chlorophenyl)butanoic acid] | increased | greater than 2 mg/mL | – | –
O=C(O)CC(CO)c1ccc(Cl)cc1 (stereo not shown) [M1, 3-(4-chlorophenyl)-4-hydroxybutyric acid] | – | – | 15% | inactive
